In series [1] the test system is Hepatotoxicity. The series is described as follows: Literature-mined compound from Fourches et al multi-species drug-induced liver injury (DILI) dataset, effect in non-rodents.
In series [2] the test system is Hepatotoxicity. Kind of series: Literature-mined compound from Fourches et al multi-species drug-induced liver injury (DILI) dataset, effect in rodents. The conditions noted are these: rodentia.
Series [3] has as its system Hepatotoxicity. Kind of series: Literature-mined compound from Fourches et al multi-species drug-induced liver injury (DILI) dataset, effect in humans. The conditions noted are these: human.

On to `CCCC1(CCC)CCC2(CCN(CCCN(CC)CC)C2)CC1` [ATIPRIMOD], for which the Hepatotoxicity entry in the series with Hepatotoxicity [1] is listed as “no drug-induced liver injury reported”; with Hepatotoxicity [2] it was “no drug-induced liver injury reported”; in the series with Hepatotoxicity [3] it was “drug-induced liver injury reported”.
For the compound `CC/C=C\C/C=C\C/C=C\C/C=C\C/C=C\CCCC(=O)O` [ICOSAPENT], the values for the Hepatotoxicity entry in the series on Hepatotoxicity [1], in the series on Hepatotoxicity [2] and in the series with Hepatotoxicity [3] were “no drug-induced liver injury reported”, “drug-induced liver injury reported” and “drug-induced liver injury reported”, respectively.
`CC(=O)OCC[N+](C)(C)C` [ACETYLCHOLINE]: the Hepatotoxicity result is listed as “drug-induced liver injury reported” with Hepatotoxicity [1] (Liver), “drug-induced liver injury reported” in the series on Hepatotoxicity [2] (Liver) and “no drug-induced liver injury reported” in the series on Hepatotoxicity [3] (Liver).
In the case of `COc1cccc(C2(O)CCCCC2CN(C)C)c1` (stereo unspecified) [TRAMADOL], the Hepatotoxicity entry is recorded as “no drug-induced liver injury reported” in the series with Hepatotoxicity [1], “drug-induced liver injury reported” in the series with Hepatotoxicity [2] and “drug-induced liver injury reported” in the series on Hepatotoxicity [3].
`Nc1ccn([C@H]2CC[C@@H](CO)O2)c(=O)n1` [ZALCITABINE]: the Hepatotoxicity entry in the series with Hepatotoxicity [1] (Liver) was “no drug-induced liver injury reported”; in the series on Hepatotoxicity [2] (Liver), “drug-induced liver injury reported”; in the series on Hepatotoxicity [3] (Liver), “drug-induced liver injury reported”.
On to `CC1(C)C(/C=C/C=C/C=C/C=C2/N(CCCCS(=O)(=O)[O-])c3ccc4ccccc4c3C2(C)C)=[N+](CCCCS(=O)(=O)[O-])c2ccc3ccccc3c21.[Na+]` [INDOCYANINE GREEN], for which the Hepatotoxicity entry in the series on Hepatotoxicity [1] is listed as “no drug-induced liver injury reported”; in the series with Hepatotoxicity [2] it was “drug-induced liver injury reported”; in the series on Hepatotoxicity [3], “no drug-induced liver injury reported”.
Turning to `Cc1ccc(-c2cc(C(F)(F)F)nn2-c2ccc(S(N)(=O)=O)cc2)cc1` [CELECOXIB], the Hepatotoxicity entry with Hepatotoxicity [1] (Liver) is “no drug-induced liver injury reported”; in the series on Hepatotoxicity [2] (Liver), “drug-induced liver injury reported”; in the series on Hepatotoxicity [3] (Liver), “drug-induced liver injury reported”.
With `C[C@H](NC(=O)C(=O)Nc1ccccc1C(C)(C)C)C(=O)N[C@@H](CC(=O)O)C(=O)COc1c(F)c(F)cc(F)c1F`, the values for the Hepatotoxicity result in the series with Hepatotoxicity [1], in the series on Hepatotoxicity [2] and with Hepatotoxicity [3] were “no drug-induced liver injury reported”, “drug-induced liver injury reported” and “no drug-induced liver injury reported”, respectively.
Regarding `Cc1cc(C)c(/C=C2\C(=O)Nc3ccccc32)[nH]1` [SEMAXANIB], the results for the Hepatotoxicity result in the series with Hepatotoxicity [1], in the series on Hepatotoxicity [2] and in the series on Hepatotoxicity [3] were “no drug-induced liver injury reported”, “drug-induced liver injury reported” and “drug-induced liver injury reported”, respectively.
Take `COc1ccc(-c2cc(=O)c3c(O)cc(O[C@@H]4O[C@H](CO[C@@H]5O[C@@H](C)[C@H](O)[C@@H](O)[C@H]5O)[C@@H](O)[C@H](O)[C@H]4O)cc3o2)cc1O` [DIOSMIN]: the Hepatotoxicity result in the series on Hepatotoxicity [1] is listed as “no drug-induced liver injury reported”; in the series with Hepatotoxicity [2], “drug-induced liver injury reported”; in the series with Hepatotoxicity [3], “no drug-induced liver injury reported”.
For the compound `Nc1nc(=O)[nH]cc1F` [FLUCYTOSINE], the Hepatotoxicity result is reported as “no drug-induced liver injury reported” in the series with Hepatotoxicity [1], “drug-induced liver injury reported” in the series with Hepatotoxicity [2] and “no drug-induced liver injury reported” in the series on Hepatotoxicity [3].
As to `CN1CCC(=C2c3ccccc3CCc3sccc32)CC1` [PIZOTYLINE], the Hepatotoxicity result in the series with Hepatotoxicity [1] is “no drug-induced liver injury reported”; with Hepatotoxicity [2], “no drug-induced liver injury reported”; in the series with Hepatotoxicity [3] it was “drug-induced liver injury reported”.

The values are drawn from ChEMBL document CHEMBL1697731, “Cheminformatics analysis of assertions mined from literature that describe drug-induced liver injury in different species” (Chem Res Toxicol, 2010).
